Target: T1, NK1-receptor (substance P-receptor) (Homo sapiens, UniProt P25103)
T1 construct: expressed in transfected cells; host or cells: IM-9 human lymphoblastoma cells
Assay: NK1-receptor affinity: displacement of 125I-labelled substance P on human lymphoblastoma cells (IM-9) with cloned NK1-receptors
Type: binding
Experimental: The receptor affinity for the NK1 -receptor (substance P-receptor) was determined on human lymphoblastoma cells (IM-9) with cloned NK1 -receptors, by measuring the displacement of ^125 I-labelled substance p.

T1 sequence (P25103 whole entry): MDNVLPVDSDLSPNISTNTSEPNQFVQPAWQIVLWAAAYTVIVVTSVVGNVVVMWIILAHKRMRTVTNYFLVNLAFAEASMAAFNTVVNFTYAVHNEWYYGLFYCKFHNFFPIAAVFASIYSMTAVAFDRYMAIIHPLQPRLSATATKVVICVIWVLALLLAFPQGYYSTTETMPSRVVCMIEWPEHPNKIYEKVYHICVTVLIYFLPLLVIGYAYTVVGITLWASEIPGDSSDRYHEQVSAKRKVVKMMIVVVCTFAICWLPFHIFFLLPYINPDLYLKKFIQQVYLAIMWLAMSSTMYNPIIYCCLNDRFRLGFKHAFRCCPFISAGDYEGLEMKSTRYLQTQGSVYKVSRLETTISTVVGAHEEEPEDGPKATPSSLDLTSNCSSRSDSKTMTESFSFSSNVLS

IC50	Compound
0.4 nM	COc1cc2c(cc1OC)N(Cc1ccccc1Cl)C(=O)C(NC(=O)[C@@H]1C[C@@H](O)CN1C(=O)c1cn(C)c3ccccc13)C2 (single isomer, unassigned) [Example 1]
0.75 nM	CCc1ccccc1CN1C(=O)C(NC(=O)[C@@H]2C[C@@H](O)CN2C(=O)c2cn(C)c3ccccc23)Cc2cc(OC)c(OC)cc21 (single isomer, unassigned) [Example 6]

— US5712397A, “Amino acid derivatives, processes for preparing them and pharmaceutical compositions containing these compounds” (Boehringer Ingelheim GmbH, priority 1994, dated 1998)
